Experimental data as given in the NIST ThermoML archive (doi:10.1021/je100687x).

Assay: xn = mol fraction of the nth substance listed
Conditions: 101 kPa, Liquid; for electrical conductivity: Crison GLP 31+ conductivimeter

CCCCCCCC[n+]1ccn(C)c1.F[B-](F)(F)F [1-methyl-3-octylimidazolium tetrafluoroborate] + CCO
Conditions | electrical conductivity [S/m] | viscosity [mPa·s]
288.15 K, x2 = 0 | – | 686
288.15 K, x2 = 0.0891 | – | 428.3
288.15 K, x2 = 0.1902 | – | 244.7
288.15 K, x2 = 0.2927 | – | 141
288.15 K, x2 = 0.3914 | – | 73.44
288.15 K, x2 = 0.4911 | – | 45.24
288.15 K, x2 = 0.5938 | – | 26.02
288.15 K, x2 = 0.6979 | – | 14.53
288.15 K, x2 = 0.798 | – | 7.219
288.15 K, x2 = 0.9002 | – | 3.499
298.15 K, x2 = 0 | 0.069 | 337.4
298.15 K, x2 = 0.0891 | – | 224.8
298.15 K, x2 = 0.1236 | 0.108 | –
298.15 K, x2 = 0.183 | 0.143 | –
298.15 K, x2 = 0.1902 | – | 140.9
298.15 K, x2 = 0.2395 | 0.191 | –
298.15 K, x2 = 0.2898 | 0.239 | –
298.15 K, x2 = 0.2927 | – | 83.3
298.15 K, x2 = 0.3359 | 0.291 | –
298.15 K, x2 = 0.3914 | – | 46.35
298.15 K, x2 = 0.4147 | 0.396 | –
298.15 K, x2 = 0.4783 | 0.5 | –
298.15 K, x2 = 0.4911 | – | 29.85
298.15 K, x2 = 0.5316 | 0.59 | –
298.15 K, x2 = 0.5759 | 0.672 | –
298.15 K, x2 = 0.5938 | – | 17.84
298.15 K, x2 = 0.6135 | 0.737 | –
298.15 K, x2 = 0.6455 | 0.786 | –
298.15 K, x2 = 0.6799 | 0.834 | –
298.15 K, x2 = 0.6979 | – | 10.39
298.15 K, x2 = 0.7089 | 0.872 | –
298.15 K, x2 = 0.7381 | 0.911 | –
298.15 K, x2 = 0.7667 | 0.918 | –
298.15 K, x2 = 0.7922 | 0.926 | –
298.15 K, x2 = 0.798 | – | 5.362
298.15 K, x2 = 0.8138 | 0.92 | –
298.15 K, x2 = 0.832 | 0.903 | –
298.15 K, x2 = 0.8472 | 0.882 | –
298.15 K, x2 = 0.8663 | 0.844 | –
298.15 K, x2 = 0.8814 | 0.8 | –
298.15 K, x2 = 0.8938 | 0.762 | –
298.15 K, x2 = 0.9002 | – | 2.764
298.15 K, x2 = 0.9087 | 0.696 | –
298.15 K, x2 = 0.9197 | 0.639 | –
298.15 K, x2 = 0.9307 | 0.583 | –
298.15 K, x2 = 0.9409 | 0.526 | –
298.15 K, x2 = 0.9502 | 0.454 | –
298.15 K, x2 = 0.9586 | 0.393 | –
298.15 K, x2 = 0.9692 | 0.304 | –
298.15 K, x2 = 0.9771 | 0.239 | –
298.15 K, x2 = 0.9851 | 0.155 | –
298.15 K, x2 = 0.9915 | 0.0924 | –
308.15 K, x2 = 0 | – | 187.7
308.15 K, x2 = 0.0891 | – | 132.1
308.15 K, x2 = 0.1902 | – | 85.86
308.15 K, x2 = 0.2927 | – | 53.62
308.15 K, x2 = 0.3914 | – | 31.24
308.15 K, x2 = 0.4911 | – | 20.79
308.15 K, x2 = 0.5938 | – | 12.87
308.15 K, x2 = 0.6979 | – | 7.756
308.15 K, x2 = 0.798 | – | 4.135
308.15 K, x2 = 0.9002 | – | 2.206
318.15 K, x2 = 0 | – | 112.1
318.15 K, x2 = 0.0891 | – | 81.45
318.15 K, x2 = 0.1902 | – | 56.18
318.15 K, x2 = 0.2927 | – | 36.49
318.15 K, x2 = 0.3914 | – | 22.1
318.15 K, x2 = 0.4911 | – | 15.44
318.15 K, x2 = 0.5938 | – | 9.671
318.15 K, x2 = 0.6979 | – | 6.015
318.15 K, x2 = 0.798 | – | 3.283
318.15 K, x2 = 0.9002 | – | 1.802
